Results: patent US8168645B2, “Arylsulfonamide compounds” (Genentech, Inc., priority 2006, dated 2012)

Key:
[1] = biological target: GST tagged BCl-xL ΔC25 protein (Homo sapiens, UniProt Q07817); experiment: Alphascreen competition binding assay, GST tagged Bcl-xL vs biotinylated Bim BH3-26 peptide; conditions: competition with Bim BH3-26 peptide; unit inferred
From the text: (§1) Measurement of competition of compounds of the invention with Bim26-mer for a Bcl-2 homologue binding site.
(§2) Alphascreen (Amplified Luminescent Proximity Homogenous Assay) is a bead based technology which measures the interaction between molecules. The assay consists of two hydrogel coated beads which, when bought into close proximity by a binding interaction, allow the transfer of singlet oxygen from a donor bead to an acceptor bead.
(§3) Upon binding and excitation with laser light at 680 nm, a photosensitizer in the donor bead converts ambient oxygen to a more excited singlet state. This singlet oxygen then diffuses across to react with a chemiluminescer in the acceptor bead. Fluorophores within the same bead are activated resulting in the emission of light at 580-620 nm.
(§4) Screening of the compounds of the invention was performed using the Alphascreen GST (glutathione s-transferase) detection kit system. Test compounds were titrated into the assay which consisted of GST tagged Bclw ΔC29 protein (0.05 nM Final concentration) and Biotinylated Bim BH3-26 peptide, Biotin-[…] (3.0 nM Final concentration). For the GST tagged BCl-xL assay, GST tagged BCl-xL ΔC25 protein (0.6 nM Final concentration) and Biotinylated Bim BH3-26 peptide, Biotin-[…] (5.0 nM final concentration) were used. To this reaction mix anti-GST coated acceptor beads and Streptavidin coated donor beads, both at 15 μg/ml Final concentration, were added and the assay mixture incubated for 4 hours at room temperature before reading. Similarly when the Bcl-2 protein was Mcl-1, GST tagged Mcl-1 protein (0.4 nM Final concentration) and Biotinylated Bak BH3 peptide, Biotin-[…]-OH (4.0 nM Final concentration) were used.
(§5) • 1) prepare a 384 well with 4.75 μL of buffer and 0.25 μL of compounds (20 mM in DMSO) per well. • 2) Mix the binding partners, in one tube add Bcl-w, BCl-xL or Mcl-1 and the acceptor beads, in the second tube add Biotinylated BH3 peptide and the donor beads. • 3) Pre-incubate the two pairs of binding partners for 30 minutes. • 4) Add 1 μL of acceptor beads:Bcl-w, BCl-xL or Mcl-1 protein mix to each well. • 5) Seal the plate and incubate at room temperature for 30 minutes. • 6) Add 10 μL of donor bead:BH3 peptide mix to each well. • 7) Seal the plate, cover with foil and incubate for 4 hours.
(§6) Assay buffer contained 50 mM Hepes pH 7.4, 10 mM DTT, 100 mM NaCl, 0.05% Tween and 0.1 mg/ml casein. Bead dilution buffer contained 50 mM Tris, pH 7.5, 0.01% Tween and 0.1 mg/ml casein. The final DMSO concentration in the assay was 0.5%. Assays were performed in 384 well white Optiplates and analyzed on the PerkinElmer Fusion alpha plate reader (Ex680, Em520-620 nM).
(§7) The GST Alphascreen detection kit and Optiplates were purchased from PerkinElmer.

GST tagged Mcl-1 protein = GST tagged Mcl-1 protein (Homo sapiens, UniProt Q07820); experiment: Alphascreen competition binding assay, GST tagged Mcl-1 vs biotinylated Bak BH3 peptide; conditions: competition with Bak BH3 peptide; unit inferred
GST tagged Mcl-1 protein, sequence (Q07820 whole entry): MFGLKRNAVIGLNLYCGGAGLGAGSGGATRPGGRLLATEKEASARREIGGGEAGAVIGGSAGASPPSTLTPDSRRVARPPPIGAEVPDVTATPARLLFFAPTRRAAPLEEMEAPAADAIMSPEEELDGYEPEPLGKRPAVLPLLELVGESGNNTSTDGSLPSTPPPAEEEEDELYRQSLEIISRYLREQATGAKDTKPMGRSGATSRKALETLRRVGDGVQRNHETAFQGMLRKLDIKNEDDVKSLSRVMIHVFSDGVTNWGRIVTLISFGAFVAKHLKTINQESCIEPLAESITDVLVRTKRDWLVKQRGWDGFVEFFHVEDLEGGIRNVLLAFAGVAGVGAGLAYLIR
From the text: as §1, §2, §3, §4, §5, §6, §7

SCLC cell line NCI-H146 = experiment: CellTitre-Glow luminescent cytotoxicity assay, NCI-H146; type: cell-based; conditions: Homo sapiens; NCI-H146 cells, 48 hr incubation
Experimental: (§8) • 1. SCLC cell lines NCI-H889, NCI-H1963, and NCI-H146 were purchased from American Type Culture Collection. Cells were maintained in RPMI 1640 (Invitrogen Corp., Grand Island, N.Y.) supplemented with 10% fetal bovine serum (FBS, Invitrogen), 1% sodium pyruvate, 25 mM HEPES, 4.5 g/L glucose and 1% penicillin/streptomycin (Sigma) in a humidified chamber at 37° C. containing 5% CO2. • 2. cells were grown as suspension aggregates in a T162 flask with 25 ml medium and kept at concentration of 1 million/mL. Test Compound Stocks: • 1. test compounds were prepared as 10 mM stocks in DMSO and stored at −20° C. Test Compound Serial Dilutions: • 1. prewarmed medium to 37° C. • 2. thawed compounds to room temperature. • 3. determined what will be the highest concentration to be tested. (i.e. 10 μM). • 4. prepared a 2× stock in culture medium of the first dose (i.e. 2×10 μM=20 μM) in an Eppendorf tube (i.e. 4 μl of 5 mM stock into 1000 μl=20 μM). • 5. inverted tube several times to mix. […] Columns 1-10 comprised the serial test compound treatments, column 11 was the untreated control and column 12 was the ‘no cell’ control for determining the background. • 1. in a 96 well plate was added 50 μl medium/well in columns 2 thru 11 and 100 μl was added to column 12. • 2. in column 1 was added 100 μl of 2× compound. • 3. made serial dilutions by transferring 50 μl to column 2, and so on up to column 10. After adding 50 μl to column 10 and mixing, discarded 50 μl. • 4. stored plates at 37° C. until ready to add cells. Cell Preparation • 1. Cell were washed one time in the culture medium and prepared as a suspension. • a. cell were first spun down to remove the medium and then ˜1 ml 0.25% trypsin was added and gently mixed and incubated for no more than three minutes at room temperature. • b. ˜10 ml of the medium was added and the cells were gently pipetted several times. • c. cells were then counted and spun down to the volume necessary for the total cell number needed, then resuspended in the medium to 200 cells/μl concentration (50,000 cells/well). • 2. […]

SCLC cell line NCI-H889 = experiment: CellTitre-Glow luminescent cytotoxicity assay, NCI-H889; type: cell-based; conditions: Homo sapiens; NCI-H889 cells, 48 hr incubation
Experimental: as §8

SCLC cell line NCI-H1963 = experiment: CellTitre-Glow luminescent cytotoxicity assay, NCI-H1963; type: cell-based; conditions: Homo sapiens; NCI-H1963 cells, 48 hr incubation
Experimental: as §8

[2] = tested on: mouse embryo fibroblasts (MEFs): wild type, Bax/Bak double knockout, Noxa-expressing, Bad-expressing; experiment: Cell viability assay on mouse embryo fibroblasts (propidium iodide uptake); type: cell-based; conditions: propidium iodide uptake after 24 hours, FIG. 1A/1B
Experimental: FIG. 1 graphically depicts the effect of Compound 1 (FIG. 1A) and Etoposide (FIG. 1B), at increasing concentrations, on the % viability of certain mouse embryo fibroblast (MEF) cells as assessed by propidium iodide uptake after 24 hours. Noxa and Bad were introduced by retrovirally infecting the cells with pMIG retroviruses as described by Chen et al., 2005.
The efficacy of the compounds of the present invention can also be determined in cell based killing assays using a variety of cell lines and mouse tumor models. For example, their activity on cell viability can be assessed on a panel of cultured tumorigenic and non-tumorigenic cell lines, as well as primary mouse or human cell populations, e.g. lymphocytes. For these assays, 5,000-20,000 cells are cultured at 37° C. and 10% CO2 in appropriate growth media, eg: 100 μL Dulbecco's Modified Eagle's medium supplemented with 10% foetal calf serum, asparaginase and 2-mercaptoethanol in the case of pre-B Eμ-Myc mouse tumors in 96 well plates. […] Cell viability is determined by the ability of the cells to exclude propidium iodide (10 μg/mL by immunofluorescence analysis of emission wavelengths of 660-675 nm on a flow cytometer (BD FACScan). Alternatively, a high throughput calorimetric assay such as the Cell Titre 96 could be used. Aqueous Non-Radioactive Cell Proliferation Assay (Promega) may be used. Cell death by apoptosis is confirmed by pre-incubation of the cells with 50 μM of a caspase inhibitor such as zVAD-fmk.
Neutralisation of both Bcl-xL and Mcl-1 anti-apoptotic proteins in normal cells is required before a cell undergoes apoptosis via the downstream Bax/Bak pathway [Chen et al., 2005; Willis et al., 2005]. A compound that only targets Bcl-xL should not affect normal cells, but could kill certain cancer cells if they rely more on Bcl-xL and less on Mcl-1 for survival. To mirror this, compound 1 was tested for its effect on survival of wild type (wt) mouse embryo fibroblasts (MEFs), Bax/Bak double knockout (BB DKO) MEFs, MEFs that expressed Noxa, and MEFs that expressed Bad. Noxa specifically neutralizes Mcl-1.

GST tagged BCl-xL ΔC25 protein, sequence (Q07817 1-208 limits assumed): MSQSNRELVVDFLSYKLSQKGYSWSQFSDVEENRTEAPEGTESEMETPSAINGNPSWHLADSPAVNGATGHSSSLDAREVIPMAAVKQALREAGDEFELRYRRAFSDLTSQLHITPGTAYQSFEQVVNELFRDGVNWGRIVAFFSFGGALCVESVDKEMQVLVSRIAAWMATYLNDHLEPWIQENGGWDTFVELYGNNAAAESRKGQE

IC50 [1]: 7 nM | IC50 (GST tagged Mcl-1 protein): 9000 nM
SMILES: CN(C)CC[C@H](CSc1ccccc1)Nc1ccc(S(=O)(=O)Nc2ncnc3cc(N4CCN(Cc5ccccc5-c5ccc(Cl)cc5)CC4)ccc23)cc1[N+](=O)[O-] [Compound 1, N-{7-[4-(4′-Chloro-biphenyl-2-ylmethyl)-piperazin-1-yl]-quinazolin-4-yl}-4-((R)-3-dimethylamino-1-phenylsulfanylmethyl-propylamino)-3-nitro-benzenesulfonamide]
EC50 (SCLC cell line NCI-H146): 0.61 µM | EC50 (SCLC cell line NCI-H889): 0.21 µM | EC50 (SCLC cell line NCI-H1963): 0.17 µM | Selectivity of killing of Noxa-expressing MEFs versus MEFs where both Bcl-xL and Mcl-1 are protective (% viability) [2]: much more sensitive to killing
